Test results taken from patent publication US12685312B2, “Sulfonamide apyrase inhibitors” (Texas Crop Science, Inc., priority 2022, dated 2026).

What follows are compounds tested on apyrase (assay: Screen for apyrase inhibitors (Method 1, in vitro phosphate-release absorbance assay)). Conditions: inhibitor conc at 1 mM stock, 1 hr room temperature, absorbance 630 nm; rounded average of two assay results.
Assay type: biochemical
In short: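 Phosphate-release colorimetric assay (Windsor method) in 60 mM Hepes, 3 mM MgCl2, 3 mM CaCl2, 3 mM ATP, pH 6.5, with compound or DMSO control added. Released phosphate developed with ammonium molybdate and ascorbic acid/TCA, then stopped with citrate/acetic acid.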

Row | % Inhibition of Apyrase [%] | SMILES
1 | 29 | O=C(Nc1ccc(Br)cc1)c1cccc(S(=O)(=O)Nc2cccc([N+](=O)[O-])c2)c1 [I-24, N-(4-bromophenyl)-3-(N-(3-nitrophenyl)sulfamoyl)benzamide]
2 | 66 | O=C(Nc1cccc(S(=O)(=O)Nc2ccc(Br)cc2)c1)c1ccc2ncsc2c1 [I-199, N-(3-(N-(4-bromophenyl)sulfamoyl)phenyl)benzo[d]thiazole-6-carboxamide]
3 | 54 | CCOc1ccc(NC(=O)c2cccc(S(=O)(=O)Nc3ccc(OCC)cc3)c2)cc1 [I-541, N-(4-ethoxyphenyl)-3-(N-(4-ethoxyphenyl)sulfamoyl)benzamide]
4 | 59 | N#Cc1cccc(NC(=O)c2ccc(Cl)c(S(=O)(=O)N3CCc4ccccc43)c2)c1 [I-462, 4-chloro-N-(3-cyanophenyl)-3-(indolin-1-ylsulfonyl)benzamide]
5 | 60 | Cc1c(NC(=O)c2cccc(S(=O)(=O)Nc3ccc4c(c3)OCO4)c2)cccc1[N+](=O)[O-] [I-10, 3-(N-(benzo[d][1,3]dioxol-5-yl)sulfamoyl)-N-(2-methyl-3-nitrophenyl)benzamide]
6 | 40 | COc1ccc(NC(=O)c2ccc(S(=O)(=O)Nc3ccccc3)cc2)cc1 [I-402, N-(4-methoxyphenyl)-4-(N-phenylsulfamoyl)benzamide]
7 | 51 | CCOc1ccc(N(C)S(=O)(=O)c2ccc(C)c(C(=O)N3c4ccccc4CC3C)c2)cc1 (stereo not drawn) [I-564, N-(4-ethoxyphenyl)-N,4-dimethyl-3-(2-methylindoline-1-carbonyl)benzenesulfonamide]
8 | 10 | O=C(Nc1ccc(N2CCOCC2)cc1)c1ccc(S(=O)(=O)N2CCCc3ccccc32)cc1 [I-895, 4-((3,4-dihydroquinolin-1(2H)-yl)sulfonyl)-N-(4-morpholinophenyl)benzamide]
9 | 45 | O=C(Nc1cccc([N+](=O)[O-])c1)c1cccc(S(=O)(=O)Nc2ccc(Cl)cc2)c1 [I-21, 3-(N-(4-chlorophenyl)sulfamoyl)-N-(3-nitrophenyl)benzamide]
10 | 55 | CN(c1ccc(F)cc1)S(=O)(=O)c1ccc(Cl)c(C(=O)Nc2ccc(F)c(Cl)c2)c1 [I-528, 2-chloro-N-(3-chloro-4-fluorophenyl)-5-(N-(4-fluorophenyl)-N-methylsulfamoyl)benzamide]
11 | 56 | COc1ccc(S(=O)(=O)N2CCc3ccccc32)cc1C(=O)Nc1ccc2c(c1)OCO2 [I-511, N-(benzo[d][1,3]dioxol-5-yl)-5-(indolin-1-ylsulfonyl)-2-methoxybenzamide]
12 | 54 | Cc1ccc(NS(=O)(=O)c2ccc(C(=O)Nc3ccccc3C)cc2)cc1 [I-394, N-(o-tolyl)-4-(N-(p-tolyl)sulfamoyl)benzamide]
13 | 56 | CCOc1ccc(NS(=O)(=O)c2c(C)cccc2NC(=O)c2ccc(Cl)cc2)cc1 [I-821, 4-chloro-N-(2-(N-(4-ethoxyphenyl)sulfamoyl)-3-methylphenyl)benzamide]
14 | 60 | NC(=O)c1cccc(NC(=O)c2cccc(S(=O)(=O)N3CCc4ccccc43)c2)c1 [I-456, N-(3-carbamoylphenyl)-3-(indolin-1-ylsulfonyl)benzamide]
15 | 58 | Cc1cccc(NS(=O)(=O)c2cccc(C(=O)Nc3ccc(Br)c(C)c3)c2)c1 [I-491, N-(4-bromo-3-methylphenyl)-3-(N-(m-tolyl)sulfamoyl)benzamide]
16 | 7 | CN(c1ccccc1)S(=O)(=O)c1cccc(NC(=O)c2ccncc2)c1 [I-768, N-(3-(N-methyl-N-phenylsulfamoyl)phenyl)isonicotinamide]
17 | 28 | Cc1ccc([N+](=O)[O-])cc1NC(=O)c1ccc(Cl)c(S(=O)(=O)Nc2cccc(C)c2C)c1 [I-25, 4-chloro-3-(N-(2,3-dimethylphenyl)sulfamoyl)-N-(2-methyl-5-nitrophenyl)benzamide]

Row | % Inhibition of Apyrase [%] | SMILES
18 | 58 | CC(=O)Nc1ccc(NC(=O)c2cccc(S(=O)(=O)N3CCc4ccccc43)c2)cc1 [I-480, N-(4-acetamidophenyl)-3-(indolin-1-ylsulfonyl)benzamide]
19 | 43 | COc1ccc(NC(=O)c2ccc(S(=O)(=O)Nc3cccc(C(F)(F)F)c3)cc2)c(OC)c1 [I-399, N-(2,4-dimethoxyphenyl)-4-(N-(3-(trifluoromethyl)phenyl)sulfamoyl)benzamide]
20 | 29 | Cc1ccc(NS(=O)(=O)c2cccc(C(=O)Nc3cccc(S(N)(=O)=O)c3)c2)cc1 [I-1008, N-(3-sulfamoylphenyl)-3-(N-(p-tolyl)sulfamoyl)benzamide]
21 | 47 | CCN(C(=O)c1ccc(S(=O)(=O)N2CCCc3ccccc32)cc1)c1ccccc1 [I-885, 4-((3,4-dihydroquinolin-1(2H)-yl)sulfonyl)-N-ethyl-N-phenylbenzamide]
22 | 61 | Cc1ccc(C)c(S(=O)(=O)Nc2ccc(C(=O)Nc3ccccc3F)cc2)c1 [I-907, 4-((2,5-dimethylphenyl)sulfonamido)-N-(2-fluorophenyl)benzamide]
23 | 58 | O=C(Nc1ccc(S(=O)(=O)N2CCc3ccccc32)cc1)c1cccc([N+](=O)[O-])c1 [I-980, N-(4-(indolin-1-ylsulfonyl)phenyl)-3-nitrobenzamide]
24 | 65 | Cc1ccc(NC(=O)c2ccc(NS(=O)(=O)c3ccc(F)c(F)c3)cc2)cc1 [I-899, 4-((3,4-difluorophenyl)sulfonamido)-N-(p-tolyl)benzamide]
25 | 74 | CN(c1ccccc1)S(=O)(=O)c1ccccc1C(=O)Nc1ccc(C#N)cc1 [I-811, N-(4-cyanophenyl)-2-(N-methyl-N-phenylsulfamoyl)benzamide]
26 | 13 | O=C(NCCCCO)c1cccc(S(=O)(=O)Nc2ccc(Br)cc2)c1 [I-286, 3-(N-(4-bromophenyl)sulfamoyl)-N-(4-hydroxybutyl)benzamide]
27 | 76 | COc1ccc2c(c1)CCCN2C(=O)c1ccc(S(=O)(=O)Nc2ccc(F)cc2)cc1 [I-858, N-(4-fluorophenyl)-4-(6-methoxy-1,2,3,4-tetrahydroquinoline-1-carbonyl)benzenesulfonamide]
28 | 5 | O=C1Cc2cccc(NS(=O)(=O)c3ccc(Cl)cc3)c2N1 [I-844, 4-chloro-N-(2-oxoindolin-7-yl)benzenesulfonamide]
29 | 55 | COc1ccc(S(=O)(=O)N2CCc3ccccc32)cc1C(=O)Nc1cccc(Br)c1 [I-525, N-(3-bromophenyl)-5-(indolin-1-ylsulfonyl)-2-methoxybenzamide]
30 | 51 | O=C(Nc1cccnc1)c1cccc(NS(=O)(=O)c2ccc(Br)cc2)c1 [I-648, 3-((4-bromophenyl)sulfonamido)-N-(pyridin-3-yl)benzamide]
31 | 57 | O=C(Nc1cccc(S(=O)(=O)Nc2ccc(I)cc2)c1)c1ccccn1 [I-723, N-(3-(N-(4-iodophenyl)sulfamoyl)phenyl)picolinamide]
32 | 69 | N#Cc1cccc(NC(=O)c2cccc(NS(=O)(=O)c3ccc(Cl)c(Cl)c3)c2)c1 [I-316, N-(3-cyanophenyl)-3-((3,4-dichlorophenyl)sulfonamido)benzamide]
33 | 26 | COc1ccc(C(=O)Nc2cccc(S(=O)(=O)Nc3nccs3)c2)cc1[N+](=O)[O-] [I-760, 4-methoxy-3-nitro-N-(3-(N-(thiazol-2-yl)sulfamoyl)phenyl)benzamide]
